From the supplement of paper PMC4862054

Tests used:
Conditions in all cases: incubation time: 72 h
CAL-148 [1] = experiment: normalised viability (% of control), CellTiter-Blue; higher = more viable cells (about 100 = DMSO control)
Experimental: (§1)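 DSRT, CellTiter-Blue viability, 72 h incubation. Signal is normalised to DMSO and benzethonium chloride controls. Value is the normalised response at dose 8.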

CAL-51 [2] = experiment: as above
Experimental: as §1

CAL-85-1 [3] = experiment: as above
Experimental: as §1

DU-4475 [4] = experiment: as above
Experimental: as §1

HDQ-P1 [5] = experiment: as above
Experimental: as §1

MDA-MB-453 [6] = experiment: as above
Experimental: as §1

CAL-148 [7] = experiment: normalised viability (% of control), CellTiter-Blue; higher = more viable cells (about 100 = DMSO control); remark: listed apart in the source
Summary of the method: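 The reported quantity is normalised viability at a single listed concentration of the series. Compound in 5 µl medium was pre-dispensed into 384-well plates and 20 µl of breast cancer cell suspension was added for 72 h. A 2 h, 37 °C CellTiter-Blue step (2.5 µl) preceded fluorescence reading at 560/590 nm, and plates were normalised to vehicle (100) and a positive kill control (0).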

HDQ-P1 [8] = experiment: normalised viability (% of control), CellTiter-Blue; higher = more viable cells (about 100 = DMSO control); remark: listed apart in the source
Experimental: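 DSRT, CellTiter-Blue viability, 72 h incubation. Signal is normalised to DMSO and benzethonium chloride controls. Value is the normalised response at dose 9.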

BT-474 = experiment: drug sensitivity score (DSS), CellTox Green (DSS (AUC-based score)); higher = stronger drug effect (viability inhibition or cytotoxicity); extreme values may be limits of the assay
Summary of the method: (§2)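 Each compound occupied 5 concentrations in 10-fold steps over its own 10,000-fold range in 384-well plates, into which breast cancer cell lines were seeded as 20 µl suspension. Following 72 h of incubation, CellTox Green fluorescence (485/520 nm) was measured, and CellTiter-Glo luminescence was measured after 10 min at room temperature. Plates were individually normalised to 0.1 % DMSO and a positive kill control. From the area under the fitted dose-response curve, a drug sensitivity score was calculated.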

BT-549 = experiment: as above
Summary of the method: as §2

CAL-120 = experiment: as above
Summary of the method: as §2

CAL-148 [9] = experiment: as above
Summary of the method: as §2

CAL-51 [10] = experiment: as above
Summary of the method: as §2

CAL-85-1 [11] = experiment: as above
Summary of the method: as §2

DU-4475 [12] = experiment: as above
Summary of the method: as §2

HCC1143 = experiment: as above
Summary of the method: as §2

HCC1599 = experiment: as above
Summary of the method: as §2

HCC1937 = experiment: as above
Summary of the method: as §2

HDQ-P1 [13] = experiment: as above
Summary of the method: as §2

Hs578T = experiment: as above
Summary of the method: as §2

MCF-10A = experiment: as above
Summary of the method: as §2

MDA-MB-231 = experiment: as above
Summary of the method: as §2

MDA-MB-436 = experiment: as above
Summary of the method: as §2

MDA-MB-453 [14] = experiment: as above
Summary of the method: as §2

MDA-MB-468 = experiment: as above
Summary of the method: as §2

MFM-223 = experiment: as above
Summary of the method: as §2

| Structure (SMILES) | drug sensitivity score (BT-474) | drug sensitivity score (BT-549) | drug sensitivity score (CAL-120) | drug sensitivity score (CAL-148 [9]) | drug sensitivity score (CAL-51 [10]) | drug sensitivity score (CAL-85-1 [11]) | drug sensitivity score (DU-4475 [12]) | drug sensitivity score (HCC1143) | drug sensitivity score (HCC1599) | drug sensitivity score (HCC1937) | drug sensitivity score (HDQ-P1 [13]) | drug sensitivity score (Hs578T) | drug sensitivity score (MCF-10A) | drug sensitivity score (MDA-MB-231) | drug sensitivity score (MDA-MB-436) | drug sensitivity score (MDA-MB-453 [14]) | drug sensitivity score (MDA-MB-468) | drug sensitivity score (MFM-223) | normalised viability (CAL-148 [1]; 3000 nM) [%] | normalised viability (CAL-51 [2]; 3000 nM) [%] | further results |
| --- | --- | --- | --- | --- | --- | --- | --- | --- | --- | --- | --- | --- | --- | --- | --- | --- | --- | --- | --- | --- | --- |
| C[C@]12CC[C@H](O)CC1=CC[C@@H]1[C@@H]2CC[C@]2(C)C(c3cccnc3)=CC[C@@H]12 [Abiraterone] | 0 | 0 | 0 | 0 | 0 | 0 | 0 | 0 | 0 | 0 | 0 | 0 | 0 | 0 | 0 | 0 | 0 | 0 | – | – | normalised viability (CAL-148 [1]; 1500 nM): 98.1%; normalised viability (CAL-51 [2]; 1500 nM): 106%; normalised viability (CAL-85-1 [3]; 1500 nM): 97.5%; normalised viability (DU-4475 [4]; 1500 nM): 88.1%; normalised viability (HDQ-P1 [5]; 1500 nM): 125%; normalised viability (MDA-MB-453 [6]; 1500 nM): 96%; normalised viability (CAL-148 [7]; 15 nM): 84.2%; normalised viability (HDQ-P1 [8]; 5000 nM): 113% |
| CNNCc1ccc(C(=O)NC(C)C)cc1 [Procarbazine] | 0 | 0 | 0 | 0 | 0 | 1.2 | 0 | 0 | 0 | 1.67 | 0 | 0 | 0 | 0 | 0 | – | 3.72 | 0 | 101 | 98.8 | normalised viability (CAL-85-1 [3]; 3000 nM): 95.7%; normalised viability (DU-4475 [4]; 3000 nM): 100%; normalised viability (HDQ-P1 [5]; 3000 nM): 127%; normalised viability (MDA-MB-453 [6]; 3000 nM): 102%; normalised viability (CAL-148 [7]; 30 nM): 101%; normalised viability (HDQ-P1 [8]; 10000 nM): 124% |
| O=C1NC(=O)[C@@H](c2cn3c4c(cccc24)CCC3)[C@@H]1c1c[nH]c2ccccc12 [Tivantinib] | 0 | 0 | 1.28 | 7.13 | 2.14 | 5.35 | 0 | 0 | 0 | 0 | 0 | 5.63 | 0 | 3.62 | 0 | 0 | 0 | 0 | – | – | normalised viability (CAL-148 [1]; 300 nM): 97.9%; normalised viability (CAL-51 [2]; 300 nM): 98.3%; normalised viability (CAL-85-1 [3]; 300 nM): 68.8%; normalised viability (DU-4475 [4]; 300 nM): 102%; normalised viability (HDQ-P1 [5]; 300 nM): 90.7%; normalised viability (MDA-MB-453 [6]; 300 nM): 49.5%; normalised viability (CAL-148 [7]; 3 nM): 93%; normalised viability (HDQ-P1 [8]; 1000 nM): 53% |
| Cn1cncc1[C@@](N)(c1ccc(Cl)cc1)c1ccc2c(c1)c(-c1cccc(Cl)c1)cc(=O)n2C [Tipifarnib] | 0 | 0 | 0 | 0 | 10.3 | 0.98 | 0 | 0 | 0 | 0 | 0 | 0 | 0 | 0 | 0 | 0 | 0 | 0 | 42.6 | 63.4 | normalised viability (CAL-85-1 [3]; 3000 nM): 65.2%; normalised viability (DU-4475 [4]; 3000 nM): 42%; normalised viability (HDQ-P1 [5]; 3000 nM): 66.8%; normalised viability (MDA-MB-453 [6]; 3000 nM): 50.1%; normalised viability (CAL-148 [7]; 30 nM): 74.1%; normalised viability (HDQ-P1 [8]; 10000 nM): 49.6% |
| COc1ccccc1S(=O)(=O)Nc1ccc2c(c1)CN(C)C(=O)N2 [PFI-1] | 0 | 0 | 0 | 0 | 0 | 0.65 | 0 | 0 | 0 | 0 | 0 | 0 | 0 | 0 | 0 | 0 | 0 | 0 | – | – | – |
| CC(C)(C#N)c1cc(Cn2cncn2)cc(C(C)(C)C#N)c1 [Anastrozole] | 0 | 0 | 0 | 0 | 0 | 0 | 0 | – | 0 | 0 | 0 | – | 0 | 0 | 0 | 0.209 | 0 | 0 | 87.2 | 108 | normalised viability (CAL-85-1 [3]; 3000 nM): 82.8%; normalised viability (DU-4475 [4]; 3000 nM): 96.5%; normalised viability (HDQ-P1 [5]; 3000 nM): 85.3%; normalised viability (MDA-MB-453 [6]; 3000 nM): 103%; normalised viability (CAL-148 [7]; 30 nM): 96.8%; normalised viability (HDQ-P1 [8]; 10000 nM): 98.6% |
